Results taken from patent US20200315233A1, “METHODS AND COMPOSITIONS FOR TREATMENT OF HYPERCALCIURIA AND NEPHROLITHIASIS” (Ana Pharmaceuticals, Inc., priority 2016, published 2020).

Key:
[1] = system: patients with nephrolithiasis that were found to have hypercalciuria (>200 mg/24 hr); assay: 24 hour urine calcium before and on vitamin K2 (MK7, MK4) in nephrolithiasis patients with hypercalciuria; assay type: in vivo, human
Text: Patients with hypercalciuria who were not on anticoagulants were routinely recommended vitamin K2 supplementation. […] All patients also received standard treatments for any other stone risk factor found in their work-up. As is routine, these patients were asked to repeat the 24 hr urine test, to evaluate response to treatment. […] This compared favorably to the 30-50% expected decrease in calcium when a thiazide diuretic is prescribed. See Martins, M. C., et al., Br J Urol, 1996. 78(2): p. 176-80. Furthermore, the calcium lowering effect of vitamin K2 was independent of the presence and treatment of other stone risk factors.
The average decrease in urine calcium in all eight patients was about 43%. […] (Table 1)

hypercalciuric subjects = conditions: cited from earlier work
[2] = MK7 100-150 mcg daily or bid for at least 3 weeks

CC(C)=CCC/C(C)=C/CC/C(C)=C/CC/C(C)=C/CC1=C(C)C(=O)c2ccccc2C1=O [MK4]
% difference of urine calcium, high dose MK4 vs low dose MK7 ([1]; F 74, MK4 15 mg daily vs MK7 120 mcg daily, same background): −40% | High Dose MK4 Urine Calcium ([1]; F 74, same background regimen, changed from MK7 120 mcg daily to MK4 15 mg daily): 191 mg/24 hr | additional decrease in 24 hour urine calcium excretion ([1]; one patient, change from MK7 120 mcg daily to MK4 15 mg daily): about 40%

CC(C)=CCC/C(C)=C/CC/C(C)=C/CC/C(C)=C/CC/C(C)=C/CC/C(C)=C/CC/C(C)=C/CC1=C(C)C(=O)c2ccccc2C1=O [MK7]
On Vitamin K Urine Calcium ([1]; Case 1, no prior regimen, before 650 mg/24 hr, on allopurinol 300 mg daily + MK7 100 mcg daily): 262 mg/24 hr | % diff of urine calcium ([1]; Case 1, on allopurinol 300 mg daily + MK7 100 mcg daily vs before vitamin K): −60% | % diff of urine calcium ([1]; Case 2, MK7 50 mcg bid with KCitrate, MgOxide, MgCitrate, Vitamin B6, allopurinol vs before vitamin K): −54% | On Vitamin K Urine Calcium ([1]; Case 2, no prior regimen, before 312 mg/24 hr, on KCitrate 99 mg bid, MgOxide 90 mg bid, MgCitrate 90 mg bid, Vitamin B6 7.5 mg bid, allopurinol 300 mg daily, MK7 50 mcg bid): 145 mg/24 hr | % diff of urine calcium ([1]; Case 3, KCitrate 200 mg daily + MK7 120 mcg bid vs before vitamin K): −51% | On Vitamin K Urine Calcium ([1]; Case 3, no prior regimen, before 321 mg/24 hr, on KCitrate 200 mg daily + MK7 120 mcg bid): 158 mg/24 hr | % diff of urine calcium ([1]; Case 4, KCitrate 1080 mg tid + MK7 100 mcg bid vs before vitamin K): −61% | On Vitamin K Urine Calcium ([1]; Case 4, before KCitrate 1080 mg bid, 320 mg/24 hr, on KCitrate 1080 mg tid + MK7 100 mcg bid): 124 mg/24 hr | On Vitamin K Urine Calcium ([1]; Case 5, before 326 mg/24 hr on allopurinol 300 mg daily, KCitrate, MgOxide, MgCitrate, Vitamin B6, on allopurinol 100 mg daily, same background + MK7 120 mcg bid): 225 mg/24 hr | % diff of urine calcium ([1]; Case 6, MK7 120 mcg bid with HCTZ, KCitrate, MgOxide, MgCitrate, Vitamin B6 vs before vitamin K): +2% | On Vitamin K Urine Calcium ([1]; Case 6, before HCTZ 12.5 mg daily, 332 mg/24 hr, on HCTZ 12.5 mg daily, KCitrate 99 mg bid, MgOxide 90 mg bid, MgCitrate 90 mg bid, Vitamin B6 7.5 mg bid, MK7 120 mcg bid): 340 mg/24 hr | % diff of urine calcium ([1]; Case 7, MK7 150 mcg daily added to stable background regimen vs before vitamin K): −73% | On Vitamin K Urine Calcium ([1]; Case 7, before 314 mg/24 hr on KCitrate, MgOxide, MgCitrate, Vitamin B6, HCTZ 25 mg bid, prednisone, vitD3, allopurinol, same regimen + MK7 150 mcg daily): 84 mg/24 hr | % diff of urine calcium ([1]; Case 8, MK7 120 mcg daily with CaCitrate, KCitrate, MgOxide, MgCitrate, Vitamin B6 vs before vitamin K): −15% | On Vitamin K Urine Calcium ([1]; Case 8, before CaCitrate 630 mg bid, 376 mg/24 hr, on CaCitrate 630 mg tid, KCitrate 99 mg bid, MgOxide 90 mg bid, MgCitrate 90 mg bid, Vitamin B6 7.5 mg bid, MK7 120 mcg daily): 321 mg/24 hr | Low Dose MK7 UCa ([1]; F 74, CaCitrate 630 mg tid, KCitrate 99 mg bid, MgOxide 90 mg bid, MgCitrate 90 mg bid, Vitamin B6 7.5 mg bid, MK7 120 mcg daily): 321 mg/24 hr | average decrease in urine calcium in all eight patients [1, 2]: about 43% | increase in urinary calcium in the one patient that showed no response [1, 2]: 2% | patients that exhibited a decrease in urinary calcium of greater than about 50% [1, 2]: 5 out of 8 | % diff of urine calcium, mean ([1]; mean of cases 1-8, on vitamin K (MK7) vs before): −43% | % diff of urine calcium, median ([1]; median of cases 1-8, on vitamin K (MK7) vs before): −52% | average decrease in the excretion of calcium in the urine ([1]; seven of the eight patients, 24 hr urine): 49%

CC1=C(C/C=C(\C)CCC[C@H](C)CCC[C@H](C)CCCC(C)C)C(=O)c2ccccc2C1=O [vitamin K1]
subjects that had a decrease in urinary calcium (hypercalciuric subjects; hypercalciuric subjects): 60% | average reduction in urinary calcium (hypercalciuric subjects; patients with a similar level of pre-treatment hypercalciuria): less than 15%

vitamin K2
decrease of urinary calcium excretion ([1]; cases 1, 2 and 3, vitamin K administered together with other agents): > 50% | decrease in urine calcium levels ([1]; many patients, within a month of therapy): more than 40%
